# The source made the active and inactive calls. The rule behind the calls is not given here.
# Assays:
# [1] = tested on: J774.2; experiment: Antiinflammatory activity against mouse J774.2 cells assessed as inhibition of LPS-induced IL-6 release at 1 mM after 24 hrs by ELISA relative to control; type: functional; settings: for inhibition at 1000 µM: J774.2, 24 h
# [2] = tested on: J774.2; experiment: Antiinflammatory activity against mouse J774.2 cells assessed as inhibition of LPS-induced IL-6 release at 0.5 mM after 24 hrs by ELISA relative to control; type: functional; settings: for inhibition at 500 µM: J774.2, 24 h
# [3] = tested on: J774.2; experiment: Antiinflammatory activity against mouse J774.2 cells assessed as inhibition of LPS-induced TNFalpha release at 0.25 mM after 24 hrs by ELISA relative to control; type: functional; settings: J774.2, 24 h
# [4] = Lipophilicity, log P of the compound; type: physicochemical; settings: octanol/water
# [5] = tested on: J774.2; experiment: Antiinflammatory activity against mouse J774.2 cells assessed as inhibition of LPS-induced IL-6 release at 0.25 mM after 24 hrs by ELISA relative to control; type: functional; settings: J774.2, 24 h
# [6] = tested on: J774.2; experiment: Antiinflammatory activity against mouse J774.2 cells assessed as inhibition of LPS-induced TNFalpha release at 1 mM after 24 hrs by ELISA relative to control; type: functional; settings: J774.2, 24 h
# [7] = tested on: J774.2; experiment: Antiinflammatory activity against mouse J774.2 cells assessed as inhibition of LPS-induced TNFalpha release at > 0.5 mM after 24 hrs by ELISA; type: functional, cell-based
# [8] = tested on: J774.2; experiment: Antiinflammatory activity against mouse J774.2 cells assessed as inhibition of LPS-induced TNFalpha release at 0.25 to 1 mM after 24 hrs by ELISA; type: functional, cell-based
# [9] = tested on: J774.2; experiment: Antiinflammatory activity against mouse J774.2 cells assessed as inhibition of LPS-induced TNFalpha release after 24 hrs by ELISA; type: functional, cell-based
Compound,logP [4],inhibition at 250 µM [3] [%],inhibition at 250 µM [5] [%],inhibition at 1000 µM [6] [%],further results
CCOC(=O)C1C(=O)C=C(Nc2ccc(N3CCN(C)CC3)cc2)CC1c1ccccc1 (stereo unspecified),4.39,52,64 to 98,100,inhibition [1]: inactive; inhibition at 500 µM [2]: 100%
CCOC(=O)C1C(=O)C=C(Nc2ccccc2N2CCN(C)CC2)CC1C (stereo unspecified),3.02,–,–,53,inhibition at 1000 µM [1]: 72%
CCOC(=O)C1C(=O)C=C(Nc2cccc(N3CCN(C)CC3)c2)CC1c1ccccc1 (stereo unspecified),4.37,–,35,–,inhibition [7]: Active
CCN1CCN(c2ccc(NC3=CC(=O)C(C(=O)OC)C(C)C3)cc2)CC1 (stereo unspecified),3.07,–,–,–,–
CCOC(=O)C1C(=O)C=C(Nc2ccc(Cl)cc2)CC1C (stereo unspecified),–,–,20,70,inhibition at 1000 µM [1]: 96%
CCOC(=O)C1C(=O)C=C(Nc2ccc(N3CCN(C)CC3)cc2)CC1C (stereo unspecified),3.07,–,–,–,–
COC(=O)C1C(=O)C=C(Nc2ccc(N3CCN(C)CC3)cc2)CC1c1ccccc1 (stereo unspecified),4.02,30,9 to 70,80 to 82,inhibition at 500 µM [2]: 98%
C[C@@H]1C[C@H]2[C@@H]3CCC4=CC(=O)C=C[C@]4(C)[C@@]3(F)[C@@H](O)C[C@]2(C)[C@@]1(O)C(=O)CO [DEXAMETHASONE],–,–,–,62,inhibition at 500 µM [2]: 40%

# Further lines, with some results ahead:
logP [4],Compound,inhibition at 250 µM [3] [%],inhibition at 250 µM [5] [%],inhibition at 1000 µM [6] [%],further results
4.77,CCOC(=O)C1C(=O)C=C(Nc2ccc(N3CCN(CC)CC3)cc2)CC1c1ccccc1 (stereo unspecified),62,62,–,inhibition [1]: inactive; inhibition [2]: inactive
3.45,CCOC(=O)C1C(=O)C=C(Nc2ccc(N3CCN(CC)CC3)cc2)CC1C (stereo unspecified),–,25,–,inhibition [7]: Active
3.97,COC(=O)C1C(=O)C=C(Nc2ccccc2N2CCN(C)CC2)CC1c1ccccc1 (stereo unspecified),–,–,–,–
2.7,COC(=O)C1C(=O)C=C(Nc2ccc(N3CCN(C)CC3)cc2)CC1C (stereo unspecified),–,53,–,inhibition [8]: inactive
2.65,COC(=O)C1C(=O)C=C(Nc2ccccc2N2CCN(C)CC2)CC1C (stereo unspecified),–,–,47,inhibition at 1000 µM [1]: 68%
4.39,CCN1CCN(c2ccc(NC3=CC(=O)C(C(=O)OC)C(c4ccccc4)C3)cc2)CC1 (stereo unspecified),65,86,–,inhibition [9]: Dose-dependent effect
3.05,CCOC(=O)C1C(=O)C=C(Nc2cccc(N3CCN(C)CC3)c2)CC1C (stereo unspecified),–,–,–,–
3.99,COC(=O)C1C(=O)C=C(Nc2cccc(N3CCN(C)CC3)c2)CC1c1ccccc1 (stereo unspecified),53,72,–,inhibition [9]: Dose-dependent effect
2.67,COC(=O)C1C(=O)C=C(Nc2cccc(N3CCN(C)CC3)c2)CC1C (stereo unspecified),40,–,–,–
4.35,CCOC(=O)C1C(=O)C=C(Nc2ccccc2N2CCN(C)CC2)CC1c1ccccc1 (stereo unspecified),–,–,–,–
